Reference: patent US5177102A, “Polyisoprene compounds and salts thereof” (Sanwa Kagaku Kenkyusho Co., Ltd., priority 1990, dated 1993)
Like-named read-outs stand apart in the source and are kept apart here.

System: stress-induced gastric ulcer
Assay: Anti-ulcer activity: water-immersion restraint stress-induced gastric ulcer in rats, oral (procedure of Takagi et al.)
Type: in vivo, Male Sprague-Dawley rats
Settings: for ED50: read-out: ED50 (dose of test compound which gives 50% inhibition)
Experimental: Some polyisoprene compounds according to the invention were tested to evaluate their anti-ulcer activity in comparison with Teprenone and Gefarnate as controls, in accordance with the procedure proposed by Takagi et al ["Japan. J. Pharmacol.", Vol. 18, page 9 (1968)].
Male Sprague-Dawley rats were used, each having the body weight of 183.9 to 234.5 g. The animals were deprived of food for 24 hours prior to the test. They were immobilized in a restraint cage and immersed for 7 hours to the height of the xiphoid process in a water-bath kept at 23°±1° C. After inflation with 10 ml of 1% formalin, the isolated stomach was opened along the greater curvature. The ulcer index was determined as the sum of length (mm) of each erosion per rat. The compounds were administered orally 30 minutes before the restraint.
Results are shown in following Table 1 in terms of percent inhibition of anti-ulcer activity. In the Table, ED50 represents the dose of test compound which gives 50% inhibition.

[1] = oral, 30 minutes before restraint, rat, read-out: Inhibition (percent inhibition, ulcer index)
[2] = oral, 30 minutes before restraint, rat
[3] = Rattus norvegicus, po, read-out: Inhibition (percent inhibition, ulcer index)

SMILES	inhibition in vivo at 12.5 mg/kg [1]	inhibition in vivo at 25 mg/kg [1]	inhibition in vivo at 50 mg/kg [1]	ED50 [2]	ED50 (Rattus norvegicus, po)	inhibition in vivo at 100 mg/kg [3]	inhibition in vivo at 200 mg/kg [3]	inhibition in vivo at 400 mg/kg [3]	inhibition in vivo at 100 mg/kg (100 mg/kg, oral, 30 minutes before restraint, rat, read-out: Inhibition (percent inhibition, ulcer index))
CC(C)=CCCC(C)=CCCC(C)=CCCC(C)=CCCC(C)=CCCC(C)=CCCC(C)=CCCC(C)=CCCC(C)=CCSCCN [Example 1, 2-(3,7,11,15,19,23,27,31,35-Nonamethyl-2,6,10,14,18,22,26,30,34-hexatriacontanonaen-1-ylthio)ethylamine]	-3.1%	39.7%	55.1%	39.7 mg/kg	–	–	–	–	–
CC(=CCSCCN)CCCC(C)CCCC(C)CCCC(C)C (stereo not drawn) [Example 2, 2-(3,7,11,15-Tetramethyl-2-hexadecaen-1-ylthio)ethylamine]	9%	45%	69%	30.8 mg/kg	–	–	–	–	–
CC(C)=CCCC(C)=CCSCCN [Example 3, 2-(3,7-Dimethyl-2,6-octadien-1-ylthio)ethylamine]	–	–	13.3%	> 50 mg/kg	–	–	–	–	–
CC(C)=CCCC(C)=CCCC(C)=CCCC(C)=CCCC(C)=CCCC(C)=CCCC(C)=CCCC(C)=CCCC(C)=CCCC(C)=CCSCCN [Example 4, 2-(3,7,11,15,19,23,27,31,35,39-Decamethyl-2,6,10,14,18,22,26,30,34,38-tetracontadecaen-1-ylthio)ethylamine]	11.1%	24.2%	44.4%	> 50 mg/kg	–	–	–	–	–
CC(C)=CCCC(C)=CCCC(C)=CCCC(C)=CCSCCN [Example 5, 2-(3,7,11,15-Tetramethyl-2,6,10,14-hexadecatetraen-1-ylthio)ethylamine]	-2.8%	57.4%	88%	21.1 mg/kg	–	–	–	–	–
CC(C)=CCCC(C)=CCCC(C)=CCSCCN [Example 6, 2-(3,7,11-Trimethyl-2,6,10-dodecatrien-1-ylthio)ethylamine]	–	–	15.4%	> 50 mg/kg	–	–	–	–	–
CNC(=C[N+](=O)[O-])NCCSCC=C(C)CCC=C(C)CCC=C(C)CCC=C(C)C [Example 7, 2-Methylamino-1-nitro-2-[2-(3,7,11,15-tetramethyl-2,6,10,14-hexadecatetraen-1-ylthio)ethylamino]ethylene]	-7%	23.8%	67.8%	37.4 mg/kg	–	–	–	–	–
CC(C)=CCCC(C)=CCCC(C)=CCCC(C)=CCCC(C)=CCCC(C)=CCCC(C)=CCCC(C)=CCCC(C)=CCCC(C)=CCNCC12CCCN1CCC2 [Example 8, 5-{[(3,7,11,15,19,23,27,31,35,39-Decamethyl-2,6,10,14,18,22,26,30,34,38-tetracontadecaen-1-yl)amino]methyl}-1-azabicyclo[3.3.0]octane]	–	–	10.3%	> 50 mg/kg	–	–	–	–	–
CC(C)=CCCC(C)=CCCC(C)=CCCC(C)=CCNCC12CCCN1CCC2 [Example 9, 5-{[(3,7,11,15-Tetramethyl-2,6,10,14-hexadecatetraen-1-yl)amino]methyl}-1-azabicyclo[3.3.0]octane]	38.4%	67.9%	84.9%	16.6 mg/kg	–	–	–	–	–
CC(C)=CCCC(C)=CCCC(C)=CCCC(C)=CCCC(C)=CCCC(C)=CCCC(C)=CCCC(C)=CCCC(C)=CCCC(C)=CCSCCNC(=O)CC12CCCN1CCC2 [Example 10, N-[2-(3,7,11,15,19,23,27,31,35,39-Decamethyl-2,6,10,14,18,22,26,30,34,38-tetracontadecaen-1-ylthio)ethyl]-(1-azabicyclo[3.3.0]octan-5-yl)acetamide]	27.3%	33.9%	–	> 50 mg/kg	–	–	–	–	–
CC(C)=CCCC(C)=CCCC(C)=CCCC(C)=CCSCCNC(=O)CC12CCCN1CCC2 [Example 11, N-[2-(3,7,11,15-Tetramethyl-2,6,10,14-hexadecatetraen-1-ylthio)ethyl]-(1-azabicyclo[3.3.0]octan-5-yl)acetamide]	9.4%	51%	68.5%	26 mg/kg	–	–	–	–	–
CC(C)=CCCC(C)=CCCC(C)=CCCC(C)=CCN(CC=C(C)CCC=C(C)CCC=C(C)CCC=C(C)C)CC12CCCN1CCC2 [Example 12, 5-{[Bis(3,7,11,15-tetramethyl-2,6,10,14-hexadecatetraen-1-yl)amino]methyl}-1-azabicyclo[3.3.0]octane]	21.5%	50%	–	≥ 25 mg/kg	–	–	–	–	–
CC(C)=CCC/C(C)=C/CC/C(C)=C/CCC(=O)OC/C=C(\C)CCC=C(C)C [Gefarnate, reference compound]	–	–	–	–	387 mg/kg	24.6%	19.2%	51.5%	–
CC(=O)CCC=C(C)CCC=C(C)CCC=C(C)CCC=C(C)C [Teprenone, reference compound]	–	0%	9.4%	> 100 mg/kg	–	–	–	–	48.3%
